This passage reports inhibition results from publication PMC11233931, “Remodeling tumor‐associated macrophage for anti‐cancer effects by rational design of irreversible inhibition of mitogen‐activated protein kinase‐activated protein kinase 2” (MedComm, 2024).

Experiment in all cases: Eurofins kinase selectivity profile against 380 other human recombinant kinases (Table S2)
What all share (format): biochemical

Assay [1] has as its target T1, 380 human recombinant protein kinases (Homo sapiens, UniProt Q9HCP0).
T1 construct: purchased Eurofins (Celle Lévescault)
Particulars: CK1γ1(h), read-out: Inhibition rate. The procedure, abridged: (§1)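 Values come from a contract kinase-profiling service that tested the compound at multiple concentrations across 380 recombinant human kinases, as an off-target check against the MK2 activity.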

Assay [2] addresses T2, 380 human recombinant protein kinases (Homo sapiens, UniProt O14965).
T2 construct: purchased Eurofins (Celle Lévescault)
T2 sequence (O14965 1-403): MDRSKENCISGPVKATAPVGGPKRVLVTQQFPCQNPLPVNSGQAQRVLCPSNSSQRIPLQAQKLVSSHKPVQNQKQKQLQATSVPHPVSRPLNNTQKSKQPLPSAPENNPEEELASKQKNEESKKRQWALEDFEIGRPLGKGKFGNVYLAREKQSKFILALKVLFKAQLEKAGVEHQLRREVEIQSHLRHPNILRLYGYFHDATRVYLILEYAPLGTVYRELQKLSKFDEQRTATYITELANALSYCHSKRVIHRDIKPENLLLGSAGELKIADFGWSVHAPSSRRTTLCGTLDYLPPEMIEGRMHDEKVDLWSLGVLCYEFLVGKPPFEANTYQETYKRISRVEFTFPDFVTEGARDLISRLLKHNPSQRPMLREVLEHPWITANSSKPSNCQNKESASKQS
Particulars: Aurora-A(h), read-out: Inhibition rate. An outline of the steps: as §1

In assay [3] the target is T3, 380 human recombinant protein kinases (Homo sapiens, UniProt P54760).
T3 construct: purchased Eurofins (Celle Lévescault)
T3 sequence (P54760 16-987): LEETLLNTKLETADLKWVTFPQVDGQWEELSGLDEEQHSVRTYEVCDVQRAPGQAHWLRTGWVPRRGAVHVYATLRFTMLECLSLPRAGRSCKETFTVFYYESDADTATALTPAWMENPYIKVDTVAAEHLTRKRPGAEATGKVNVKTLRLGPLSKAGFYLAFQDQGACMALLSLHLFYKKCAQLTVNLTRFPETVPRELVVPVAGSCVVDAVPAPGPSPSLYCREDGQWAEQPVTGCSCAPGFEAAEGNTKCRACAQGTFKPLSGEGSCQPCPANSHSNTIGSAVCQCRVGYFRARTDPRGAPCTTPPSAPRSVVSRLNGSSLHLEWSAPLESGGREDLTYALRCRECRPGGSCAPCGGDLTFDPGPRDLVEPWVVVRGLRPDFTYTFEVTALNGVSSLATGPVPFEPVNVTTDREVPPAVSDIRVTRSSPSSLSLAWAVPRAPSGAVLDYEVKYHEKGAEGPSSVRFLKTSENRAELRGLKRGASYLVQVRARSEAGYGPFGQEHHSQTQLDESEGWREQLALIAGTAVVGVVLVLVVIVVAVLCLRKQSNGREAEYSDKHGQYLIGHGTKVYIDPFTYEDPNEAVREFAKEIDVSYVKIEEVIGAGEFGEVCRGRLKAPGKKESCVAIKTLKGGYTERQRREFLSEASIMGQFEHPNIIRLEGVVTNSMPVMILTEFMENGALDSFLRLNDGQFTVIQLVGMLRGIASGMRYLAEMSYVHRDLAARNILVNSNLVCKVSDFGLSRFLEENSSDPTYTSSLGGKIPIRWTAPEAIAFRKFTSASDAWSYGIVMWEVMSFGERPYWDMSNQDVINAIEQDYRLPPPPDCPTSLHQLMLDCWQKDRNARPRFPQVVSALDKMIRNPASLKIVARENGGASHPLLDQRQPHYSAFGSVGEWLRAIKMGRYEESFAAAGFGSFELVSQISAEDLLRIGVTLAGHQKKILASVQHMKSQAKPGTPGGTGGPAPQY
Particulars: EphB4(h), read-out: Inhibition rate. An outline of the steps:
as §1

For assay [4], the target named is T4, 380 human recombinant protein kinases (Homo sapiens, UniProt P54762).
T4 construct: purchased Eurofins (Celle Lévescault)
T4 sequence (P54762 18-984): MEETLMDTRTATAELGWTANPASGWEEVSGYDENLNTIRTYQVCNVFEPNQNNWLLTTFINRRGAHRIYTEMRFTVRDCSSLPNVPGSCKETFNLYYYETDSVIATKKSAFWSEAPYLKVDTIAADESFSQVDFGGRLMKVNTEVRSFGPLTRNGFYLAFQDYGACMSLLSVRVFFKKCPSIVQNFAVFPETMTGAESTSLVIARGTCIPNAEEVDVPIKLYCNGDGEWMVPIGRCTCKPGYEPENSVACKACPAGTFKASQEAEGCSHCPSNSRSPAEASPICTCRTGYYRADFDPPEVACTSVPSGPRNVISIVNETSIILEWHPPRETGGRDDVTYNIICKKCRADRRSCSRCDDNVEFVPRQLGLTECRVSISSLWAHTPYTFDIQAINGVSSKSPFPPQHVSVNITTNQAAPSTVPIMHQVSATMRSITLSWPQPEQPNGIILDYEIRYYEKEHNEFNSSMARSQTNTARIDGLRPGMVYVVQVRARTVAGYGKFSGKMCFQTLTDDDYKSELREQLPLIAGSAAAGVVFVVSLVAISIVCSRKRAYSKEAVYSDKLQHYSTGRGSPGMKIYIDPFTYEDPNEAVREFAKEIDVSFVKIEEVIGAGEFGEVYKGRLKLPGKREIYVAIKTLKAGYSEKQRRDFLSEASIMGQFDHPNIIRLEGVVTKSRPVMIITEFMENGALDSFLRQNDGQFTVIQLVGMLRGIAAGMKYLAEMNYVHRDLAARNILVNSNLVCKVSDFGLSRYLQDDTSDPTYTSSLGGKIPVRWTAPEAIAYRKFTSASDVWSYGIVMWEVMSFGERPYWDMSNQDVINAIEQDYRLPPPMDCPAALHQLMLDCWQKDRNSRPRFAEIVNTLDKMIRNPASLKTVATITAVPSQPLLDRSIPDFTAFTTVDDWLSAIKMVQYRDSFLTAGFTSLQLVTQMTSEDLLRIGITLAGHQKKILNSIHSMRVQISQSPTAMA
The settings on record: EphB1(h), read-out: Inhibition rate. The procedure, abridged: as §1

T1 sequence (Q9HCP0 whole entry): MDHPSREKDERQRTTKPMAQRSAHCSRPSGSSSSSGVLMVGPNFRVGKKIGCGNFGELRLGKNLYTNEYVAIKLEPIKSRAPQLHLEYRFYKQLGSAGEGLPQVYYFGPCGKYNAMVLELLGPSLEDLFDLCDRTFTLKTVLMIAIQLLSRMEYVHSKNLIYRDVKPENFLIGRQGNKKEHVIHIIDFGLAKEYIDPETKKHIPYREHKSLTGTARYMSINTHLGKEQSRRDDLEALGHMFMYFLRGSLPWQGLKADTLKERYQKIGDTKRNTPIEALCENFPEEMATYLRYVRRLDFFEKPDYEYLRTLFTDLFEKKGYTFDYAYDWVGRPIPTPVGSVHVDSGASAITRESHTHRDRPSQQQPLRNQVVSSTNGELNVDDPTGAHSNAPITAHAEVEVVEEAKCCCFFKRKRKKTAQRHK

As a reminder, the inhibition is the change of the read-out against control, counted positive when it falls. Take `C=CC(=O)Nc1cc(-c2cc(-c3cc4c([nH]3)CCNC4=O)ccn2)ccc1OC(F)(F)F` [compound 11]: the inhibition at 0.01 µM in assay [1] (10 nM) is 0%; in assay [2] (10 nM), -1%; in assay [3] (10 nM), -4%; in assay [4] (10 nM), -17%. Moreover, the inhibition at 0.1 µM was 14% in assay [1] (100 nM), 1% in assay [2] (100 nM), -15% in assay [3] (100 nM) and -12% in assay [4] (100 nM). Also, the inhibition at 1 µM in assay [1] (1000 nM) was 56%; in assay [2] (1000 nM) it was 7%; in assay [3] (1000 nM), -4%; in assay [4] (1000 nM), 2%.
